According to ChEMBL document CHEMBL1201862, “PubChem BioAssay data set” (2004):
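All cell lines were grown in 96-well plates and treated with compound for 48 hours. GI50 marks 50% less growth.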 Calls of active or inactive are those of the source. Cut-off read from the data, not from the text of the source: active = GI50 up to about 1.1 µM and inactive = higher.

What was measured:
Experiment in all cases: inhibition of tumour cell growth, NCI panel, 48 h
[1] = tested on: A498
[2] = tested on: UACC-62
[3] = tested on: HT-29
[4] = tested on: SF-268
[5] = tested on: DLD-1
[6] = tested on: RXF 393
[7] = tested on: OVCAR-4
[8] = tested on: EKVX
[9] = tested on: SNB-78
[10] = tested on: HL-60
[11] = tested on: OVCAR-8
[12] = tested on: M19-MEL
[13] = tested on: HCT-15
[14] = tested on: K562
[15] = tested on: DMS-273
[16] = tested on: SNB-75
[17] = tested on: IGROV-1
[18] = tested on: SF-295
[19] = tested on: SK-MEL-28
[20] = tested on: UACC-257
[21] = tested on: DMS-114
[22] = tested on: 786-0
[23] = tested on: U-251
[24] = tested on: ACHN
[25] = tested on: XF498
[26] = tested on: M14
[27] = tested on: HCT-116
[28] = tested on: LXFL 529
[29] = tested on: HOP-62
[30] = tested on: NCI-H226
[31] = tested on: MOLT-4
[32] = tested on: SF-539
[33] = tested on: UO-31
[34] = tested on: SR
[35] = tested on: Malme-3M
[36] = tested on: A549
[37] = tested on: HCC 2998
[38] = tested on: CCRF-CEM
[39] = tested on: NCI-H23
[40] = tested on: SK-OV-3
[41] = tested on: SK-MEL-5
[42] = tested on: HOP-92
[43] = tested on: SN12C
[44] = tested on: RPMI-8226
[45] = tested on: SW-620
[46] = tested on: SNB-19
[47] = tested on: KM-20L2
[48] = tested on: NCI-H522
[49] = tested on: HOP-18
[50] = tested on: COLO 205
[51] = tested on: CAKI-1
[52] = tested on: LOX IMVI
[53] = tested on: NCI-H460
[54] = tested on: KM12
[55] = tested on: TK-10
[56] = tested on: OVCAR-5
[57] = tested on: RXF 631
[58] = tested on: SK-MEL-2
[59] = tested on: OVCAR-3

CCOc1ccc(/C=C(\Cl)c2ccc(OC)cc2)cc1
GI50 [1]: 25.2 µM (inactive)
GI50 [2]: > 100 µM (inactive)
GI50 [3]: > 100 µM (inactive)
GI50 [4]: > 100 µM (inactive)
GI50 [5]: > 100 µM (inactive)
GI50 [6]: > 100 µM (inactive)
GI50 [7]: > 100 µM (inactive)
GI50 [8]: > 100 µM (inactive)
GI50 [9]: > 100 µM (inactive)
GI50 [10]: 47.6 µM (inactive)
GI50 [11]: > 100 µM (inactive)
GI50 [12]: > 100 µM (inactive)
GI50 [13]: > 100 µM
GI50 [14]: > 100 µM (inactive)
GI50 [15]: > 100 µM (inactive)
GI50 [16]: > 100 µM (inactive)
GI50 [17]: > 100 µM (inactive)
GI50 [18]: > 100 µM (inactive)
GI50 [19]: > 100 µM (inactive)
GI50 [20]: > 100 µM (inactive)
GI50 [21]: 78.7 µM (inactive)
GI50 [22]: > 100 µM (inactive)
GI50 [23]: > 100 µM (inactive)
GI50 [24]: > 100 µM (inactive)
GI50 [25]: > 100 µM (inactive)
GI50 [26]: > 100 µM (inactive)
GI50 [27]: > 100 µM (inactive)
GI50 [28]: > 100 µM (inactive)
GI50 [29]: > 100 µM (inactive)
GI50 [30]: > 100 µM (inactive)
GI50 [31]: > 100 µM (inactive)
GI50 [32]: > 100 µM (inactive)
GI50 [33]: > 100 µM (inactive)
GI50 [34]: > 100 µM (inactive)
GI50 [35]: > 100 µM (inactive)
GI50 [36]: > 100 µM (inactive)
GI50 [37]: > 100 µM (inactive)
GI50 [38]: > 100 µM (inactive)
GI50 [39]: > 100 µM (inactive)
GI50 [40]: > 100 µM (inactive)
GI50 [41]: > 100 µM (inactive)
GI50 [42]: > 100 µM (inactive)
GI50 [43]: > 100 µM (inactive)
GI50 [44]: > 100 µM (inactive)
GI50 [45]: > 100 µM (inactive)
GI50 [46]: > 100 µM (inactive)
GI50 [47]: > 100 µM (inactive)
GI50 [48]: > 100 µM (inactive)
GI50 [49]: > 100 µM (inactive)
GI50 [50]: > 100 µM (inactive)

CC1=C(C(=O)Nc2cc(F)c(F)cc2F)C(c2cccc([N+](=O)[O-])c2)C(C(=O)Nc2ccccc2C(F)(F)F)=C(C)N1 (configuration not stated)
GI50 [1]: 11.2 µM (inactive)
GI50 [3]: 26.7 µM (inactive)
GI50 [4]: 18.7 µM (inactive)
GI50 [5]: 25.3 µM (inactive)
GI50 [6]: 13.9 µM (inactive)
GI50 [7]: 18.1 µM (inactive)
GI50 [8]: 21.4 µM (inactive)
GI50 [51]: 15.8 µM (inactive)
GI50 [9]: 19.5 µM (inactive)
GI50 [52]: 17.9 µM (inactive)
GI50 [10]: 14.6 µM (inactive)
GI50 [11]: 27 µM (inactive)
GI50 [12]: 27.2 µM (inactive)
GI50 [53]: 18.5 µM (inactive)
GI50 [14]: 14.4 µM (inactive)
GI50 [16]: 12.6 µM (inactive)
GI50 [17]: 23.5 µM (inactive)
GI50 [18]: 23.4 µM (inactive)
GI50 [19]: 22 µM (inactive)
GI50 [54]: 21.3 µM (inactive)
GI50 [20]: 23.4 µM (inactive)
GI50 [21]: 17 µM (inactive)
GI50 [22]: 17.3 µM (inactive)
GI50 [23]: 16.9 µM (inactive)
GI50 [24]: 21.1 µM (inactive)
GI50 [55]: 31.8 µM (inactive)
GI50 [26]: 22.8 µM (inactive)
GI50 [28]: 16.8 µM (inactive)
GI50 [56]: 17.9 µM (inactive)
GI50 [29]: 22.4 µM (inactive)
GI50 [30]: 21.3 µM (inactive)
GI50 [31]: 12.5 µM (inactive)
GI50 [57]: 19.2 µM (inactive)
GI50 [32]: 20.7 µM (inactive)
GI50 [33]: 12.3 µM (inactive)
GI50 [35]: 25.4 µM (inactive)
GI50 [36]: 26.8 µM (inactive)
GI50 [37]: 20 µM (inactive)
GI50 [38]: 17.5 µM (inactive)
GI50 [39]: 16.6 µM (inactive)
GI50 [40]: 23.2 µM (inactive)
GI50 [58]: 18 µM (inactive)
GI50 [41]: 22.1 µM (inactive)
GI50 [42]: 10.9 µM (inactive)
GI50 [43]: 19.8 µM (inactive)
GI50 [44]: 13 µM (inactive)
GI50 [45]: 31 µM (inactive)
GI50 [46]: 30.7 µM (inactive)
GI50 [59]: 16.8 µM (inactive)
GI50 [47]: 23.8 µM (inactive)
GI50 [48]: 13.8 µM (inactive)
GI50 [50]: 28.7 µM (inactive)
